Results on five compounds are retold here after patent publication US20200345049A1, “COMPOSITIONS” (Givaudan, S.A., priority 2017, published 2020).

Common to all, as to assay type: in vivo, human
Experiment [1] deals with expert panel of seven people. Kind of experiment: Scoring of sweet taste aspects versus base solution (5% sucrose and 0.03% citric acid). The settings on record: for Astringent, average score / Lingering Sweet, average score / Overall Sweet, average score / Upfront Sweet, average score / Volatile Off-Note, average score: score versus base, 0 same, 3 much higher, −3 much lower.

For experiment [2], the system named is Four sweet sensitive panelists. The experiment can be described thus: Iso-sweet potency versus standard sucrose solutions. The method, then: 10 mg iso-mogroside VI (FIG. 7) was dissolved in […] water to make 100 ppm iso-mogroside VI solution. The working solution of 11-epi-mogroside V (FIG. 8) was 374 ppm (9.34 mg 11-epi-mogroside V in 25 mL water), A series of standard sucrose solutions were prepared (0.50, 0.75, 1.00, 1.25, 1.50%) as sweetness references.
Four sweet sensitive panelists evaluated 100 ppm iso-mogroside VI and 374 ppm 11-epi-mogroside V and the sucrose standards, and were asked to give sweet equivalence concentrations to sucrose. The mean sweet equivalence concentrations of each compound were used to calculate the iso-sweet potency.

The subject of experiment [3] is sweet sensitive taste panel. The experiment can be described thus: Sweetness enhancement: sweetener added to 5% (w/v) sucrose, ranked against 5, 6, 6.5 and 7% (w/v) sucrose solutions. The settings on record: for Average Score: ranked against 5, 6, 6.5 and 7% sucrose; for Sweetness enhancer effect: increase in sweetness of 5% (w/v) sucrose greater than sweetness of the sweetener alone. The method, then:
This solution was then ranked against 5, 6, 6.5 and 7% (w/v) sucrose solutions. This was repeated for 45 ppm Luo Han Guo extract. The average score of each solution was determined. […] These solutions were then ranked against 5, 6, 6.5 and 7% (w/v) sucrose solutions. The average score of each solution was determined.

In experiment [4] the test system is expert panel of three people (trained flavourists). The experiment can be described thus: Descriptive taste test in 5% sucrose and 0.03% citric acid compared to Luo Han Guo extract. The settings on record: for Taste description: added to 5% sucrose and 0.03% citric acid; for Sweet quality compared to Luo Han Guo extract: in 5% sucrose and 0.03% citric acid. The method, then:
The taste of various concentrations of mixture 1 was tested by an expert panel of three people (trained flavourists) in solutions containing 5% sucrose and 0.03% citric acid. The taste was compared to the Luo Han Guo extract used in Example 2 (obtained from Azile LCC (Rolling Hills Est, California) (extract 1 of Example 1 above) and containing about 68 wt % mogrosides) (combined with the same 5% sucrose and 0.03% citric acid solution).
The taste of these sweeteners was tested by an expert panel of three people (trained flavourists) in solutions containing 5% sucrose and 0.03% citric acid. The taste was compared to the Luo Han Guo extract used in Example 2 (obtained from Azile LCC (Rolling Hills Est, California) (extract 1 of Example 1 above) and containing about 68 wt % mogrosides).

The subject of experiment [5] is sweet sensitive taste panel. The experiment can be described thus: Sweetness ranking against sucrose solutions to determine sucrose equivalence. The text has this:
The term “sucrose equivalence” refers to the equivalence in sweetness of a composition containing at least one non-sucrose sweetener to a reference sucrose solution. Typically, taste panellists are trained to detect sweetness of reference sucrose solutions containing between 1% and 15% sucrose (w/v). Other non-sucrose sweeteners may then be tasted at a series of dilutions to determine the concentration of the non-sucrose sweetener that is as sweet (i.e. isosweet) to a given sucrose reference. The term “isosweet” refers to compositions that have equivalent sweetness. Typically, the sweetness of a given composition is measured with reference to a solution of sucrose. See “A Systematic Study of Concentration-Response Relationships of Sweeteners,” G. E. DuBois, D. E. Walters, S. S. Schiffman, Z. S. Warwick, B. J. Booth, S. D. Pecore, K. Gibes, B. T. Carr, and L. M. Brands, in Sweeteners: Discovery, Molecular Design and Chemoreception, D. E. Walters, F. T. Orthoefer, and G. E. DuBois, Eds., American Chemical Society, Washington, D.C. (1991), pp 261-276.
A sweet sensitive taste panel ranked the sweetness of solutions of a mixture of sweeteners (“Mixture 1”) in relation to sucrose solutions at a range of concentrations to determine sucrose equivalence. Mixture 1 was a combination of fractions 11 to 18 of Example 2 and contained 8.16 wt % 11-O-mogroside V and 61.6 wt % mogroside V. The results are shown in Table 6 below.
A sweet sensitive taste panel ranked the sweetness of solutions of various sweeteners (mogroside V, mogroside IV, siamenoside, neomogroside, 11-O-mogroside V) in relation to sucrose solutions at a range of concentrations to determine sucrose equivalence. The sweeteners were obtained using an Agilent 1100 preparative HPLC system with a Phenomenex Luna C18 (2) column (5 μm, 210×21.4 mm).

Several values for one entry are separate records, joined by “and”; a condition that tells them apart may be missing. Equal entries are not always repeated.

For “3-O-β-D-glucopyranosyl(1→6)-β-D-glucopyranosyl-mogrol-24-O-β-D-glucopyranosyl-(1→6-[β-D-glucopyranosyl-(1→4)-β-D-glucopyranosyl-(1→2)]-β-D-glucopyranosyl [iso-mogroside VI]”, in experiment [1] (Table 20, 25 ppm in 5% sucrose and 0.03% citric acid), the Comments result is listed as “Slightly acidic”. In experiment [1] (Table 20, 25 ppm), the “Astringent, average score” value amounted to 0; the “Lingering Sweet, average score” value was determined as 0.2; the “Overall Sweet, average score” value is 0.2; the “Upfront Sweet, average score” value is recorded as 0.2. For the same compound, the “Volatile Off-Note, average score” value in experiment [1] (Table 20, 25 ppm) was found to be 0. For the same compound, in experiment [2] (100 ppm in water), the “Sweet equivalence concentration to sucrose” value is recorded as 0.91 % sucrose. Moreover, in experiment [2] (calculated from mean sweet equivalence concentrations), the Iso-sweet potency is reported as 91 times of sweetness of sucrose.
Take `C[C@H](CC[C@@H](O[C@@H]1O[C@H](CO)[C@@H](O)[C@H](O)[C@H]1O[C@@H]1O[C@H](CO)[C@@H](O)[C@H](O)[C@H]1O)C(C)(C)O)[C@H]1CC[C@@]2(C)[C@H]3CC=C4[C@@H](CC[C@H](O[C@@H]5O[C@H](CO[C@@H]6O[C@H](CO)[C@@H](O)[C@H](O)[C@H]6O)[C@@H](O)[C@H](O)[C@H]5O)C4(C)C)[C@]3(C)[C@H](O)C[C@]12C` [Mogroside IV]: in experiment [1] (Table 16, 30 ppm), the “Astringent, average score” value is recorded as 0; the “Lingering Sweet, average score” value is reported as 0; the “Overall Sweet, average score” value was 0.4; the “Upfront Sweet, average score” value is 0.4. In addition, the “Volatile Off-Note, average score” value in experiment [1] (Table 16, 30 ppm) amounted to 0. Moreover, the “Average Score” value in experiment [3] (30 ppm in 5% (w/v) sucrose) is 6.2. Besides, in experiment [4], the Taste description entry is “good and similar sweetness as mogroside V”; the “Sweet quality compared to Luo Han Guo extract” value is recorded as “better than Luo Han Guo extract in terms of sweet quality”. Besides, in experiment [5] (Table 10, 25 ppm Mogroside IV, 7 panelists), the “Total of sweetness ranks” value was 13. Also, the “Total of sweetness ranks” value in experiment [5] (Table 10, 30 ppm Mogroside IV, 7 panelists) came to 20.
Regarding `C[C@H](CC[C@@H](O[C@@H]1O[C@H](CO[C@H]2O[C@H](CO)[C@H](O)[C@H](O)[C@H]2O)[C@@H](O)[C@H](O)[C@H]1O[C@@H]1O[C@H](CO)[C@@H](O)[C@H](O)[C@H]1O)C(C)(C)O)[C@H]1CC[C@@]2(C)[C@H]3CC=C4[C@@H](CC[C@H](O[C@@H]5O[C@H](CO[C@@H]6O[C@H](CO)[C@@H](O)[C@H](O)[C@H]6OC6O[C@H](CO)[C@@H](O)[C@H](O)[C@H]6O)[C@@H](O)[C@H](O)[C@H]5O)C4(C)C)[C@]3(C)[C@H](O)C[C@]12C` (stereo partly drawn) [Neomogroside], in experiment [1] (Table 16, 30 ppm), the “Astringent, average score” value worked out at 0; the “Lingering Sweet, average score” value came to 0.4; the “Overall Sweet, average score” value is 1.4; the “Upfront Sweet, average score” value came out at 1. Moreover, the “Volatile Off-Note, average score” value in experiment [1] (Table 16, 30 ppm) was determined as 0. In experiment [3] (30 ppm in 5% (w/v) sucrose), the “Average Score” value is 6.35. For the same compound, in experiment [3], the Sweetness enhancer effect result is given as “act as sweetness enhancers”. Besides, in experiment [4], the Taste description entry was “sweetness, but slightly bitter aftertaste” and the “Sweet quality compared to Luo Han Guo extract” value is on record as “better than Luo Han Guo extract in terms of sweet quality”. Further, the “Total of sweetness ranks” value in experiment [5] (Table 13, 25 ppm Neomogroside, 9 panelists) amounted to 16. The “Total of sweetness ranks” value in experiment [5] (Table 13, 30 ppm Neomogroside, 9 panelists) is recorded as 29.
As to `C[C@H](CC[C@@H](O[C@@H]1O[C@H](CO[C@@H]2O[C@H](CO)[C@@H](O)[C@H](O)[C@H]2O)[C@@H](O)[C@H](O)[C@H]1O[C@@H]1O[C@H](CO)[C@@H](O)[C@H](O)[C@H]1O)C(C)(C)O)[C@H]1CC[C@@]2(C)[C@H]3CC=C4[C@@H](CC[C@H](O[C@@H]5O[C@H](CO)[C@@H](O)[C@H](O)[C@H]5O)C4(C)C)[C@]3(C)[C@H](O)C[C@]12C` [Siamenoside], in experiment [1] (Table 16, 25 ppm), the “Astringent, average score” value was found to be 0.4; the “Lingering Sweet, average score” value is recorded as 0.6; the “Overall Sweet, average score” value is 1.8; the “Upfront Sweet, average score” value turned out to be 1.4. The “Volatile Off-Note, average score” value in experiment [1] (Table 16, 25 ppm) came out at 0.2. In addition, the “Average Score” value in experiment [3] (25 ppm in 5% (w/v) sucrose) stood at 6.4. The Sweetness enhancer effect entry in experiment [3] is recorded as “act as sweetness enhancers”. In experiment [4], the Taste description result is “more sweet body, sweeter, rounder with a little more upfront and more round lasting sweet”; the “Sweet quality compared to Luo Han Guo extract” value is listed as “better than Luo Han Guo extract in terms of sweet quality”. Also, the “Total of sweetness ranks” value in experiment [5] (Table 11, Siamenoside 20 ppm, 7 panelists) stood at 19. Also, the “Sweetness rank by panelist” value in experiment [5] (Table 11, Siamenoside 25 ppm) is 2 and 3 and 4. The “Total of sweetness ranks” value in experiment [5] (Table 11, Siamenoside 25 ppm, 7 panelists) was determined as 19.
Consider `OC[C@H]1O[C@@](CO)(O[C@H]2O[C@H](CO)[C@@H](O)[C@H](O)[C@H]2O)[C@@H](O)[C@@H]1O` [Sucrose], for which the “Total of sweetness ranks” value was 33 in experiment [5] (Table 6, 1% Sucrose reference, 10 panelists); 47 in experiment [5] (Table 6, 1.5% Sucrose reference, 10 panelists); 8 in experiment [5] (Table 9, 0.5% Sucrose reference, 6 panelists); 19 in experiment [5] (Table 9, 1% Sucrose reference, 6 panelists); 29 in experiment [5] (Table 9, 1.5% Sucrose reference, 6 panelists); 14 in experiment [5] (Table 10, Sucrose 0.5% reference, 7 panelists). Also, the “Total of sweetness ranks” value was found to be 23 in experiment [5] (Table 10, Sucrose 1% reference, 7 panelists); 35 in experiment [5] (Table 10, Sucrose 1.5% reference, 7 panelists); 8 in experiment [5] (Table 11, Sucrose 0.5% reference, 7 panelists); 24 in experiment [5] (Table 11, Sucrose 1% reference, 7 panelists); 35 in experiment [5] (Table 11, Sucrose 1.5% reference, 7 panelists); 9 in experiment [5] (Table 12, Sucrose 0.5% reference, 7 panelists). Also, the “Total of sweetness ranks” value in experiment [5] (Table 12, Sucrose 1% reference, 7 panelists) was 17; in experiment [5] (Table 12, Sucrose 1.5% reference, 7 panelists), 27; in experiment [5] (Table 13, 0.5% Sucrose reference, 9 panelists) it was 15; in experiment [5] (Table 13, 1% Sucrose reference, 9 panelists), 31; in experiment [5] (Table 13, 1.5% Sucrose reference, 9 panelists), 44. For the same compound, the “Sweetness rank by panelist” value in experiment [5] (Table 6, 1.5% Sucrose reference) is 4 and 5; in experiment [5] (Table 9, 1% Sucrose reference) it was 3 and 2 and 4; in experiment [5] (Table 9, 1.5% Sucrose reference), 5 and 4; in experiment [5] (Table 10, Sucrose 1.5% reference), 5; in experiment [5] (Table 11, Sucrose 0.5% reference) it was 1 and 2; in experiment [5] (Table 11, Sucrose 1% reference) it was 4 and 2 and 3. The “Sweetness rank by panelist” value in experiment [5] (Table 11, Sucrose 1.5% reference) was 5; in experiment [5] (Table 12, Sucrose 1% reference), 2 and 3; in experiment [5] (Table 12, Sucrose 1.5% reference), 3 and 4; in experiment [5] (Table 13, 1% Sucrose reference) it was 3 and 4 and 2; in experiment [5] (Table 13, 1.5% Sucrose reference), 5 and 4.
